Assay results: patent US20150038438A1, “ANTIBACTERIAL COMPOUNDS AND METHODS FOR USE” (PTC THERAPEUTICS, INC., priority 2011, published 2015)
Values after ≈ are worked out from the molar mass of the structure shown. Counter-ions that a name gives are not always drawn.

Assays:
Experiment in all cases: Antibacterial activity, microbroth dilution method (MIC)
[1] = system: control Gram-negative E. coli 25922 strain; type: cell-based, Escherichia coli; conditions: Escherichia coli
Description: (§1) The antibacterial activity from a microbroth dilution method may be presented as the minimum inhibitory concentration (MIC in μg/mL). The MIC value is the lowest concentration of drug which prevents macroscopically visible growth under test conditions.
(§2) Antibacterial activity of test compounds against the super sensitive Gram-negative Escherichia coli (E. coli) BAS849 bacterium, the control Gram-negative E. coli 25922 strain and the Gram-positive Staphylococcus aureus (S. aureus) 29213 bacterium are shown in Table 1.

[2] = system: super sensitive Gram-negative Escherichia coli (E. coli) BAS849; type: cell-based; conditions: Escherichia coli; super sensitive Gram-negative E. coli BAS849; microbroth dilution; read-out: MIC, E. coli BAS849
Description: as §1, §2

[3] = system: Gram-positive Staphylococcus aureus (S. aureus) 29213; type: cell-based; conditions: Staphylococcus aureus, Gram-positive S. aureus 29213
Description: as §1, §2

Compound	MIC [1] [µg/mL]	MIC [2] [µg/mL]	MIC [3] [µg/mL]
COCCNCc1cc2cc3c(cc2n1C)OCCc1c-3[nH]c(=O)c(C(=O)O)c1O.Cl [Cpd 183, 4-hydroxy-10-(((2-methoxyethyl)amino)methyl)-9-methyl-2-oxo-2,5,6,9-tetrahydro-1H-pyrido[2′,3′:4,5]oxepino[3,2-f]indole-3-carboxylic acid hydrochloride]	1 to 3.5	< 1	12.5 to 150
Cl.Cn1c(CNC(C)(C)C)cc2cc3c(cc21)CCCc1cc(C(=O)O)c(=O)[nH]c1-3 [Cpd 56, 10-((tert-butylamino)methyl)-9-methyl-2-oxo-1,2,5,6,7,9-hexahydropyrido[3′,2′:6,7]cyclohepta[1,2-f]indole-3-carboxylic acid hydrochloride]	1 to 3.5	< 1	12.5 to 150
CCCCNCc1cc2cc3c(cc2n1C)CCCc1c-3[nH]c(=O)c(C(=O)O)c1O.Cl [Cpd 136, 10-((butylamino)methyl)-4-hydroxy-9-methyl-2-oxo-1,2,5,6,7,9-hexahydropyrido[3′,2′:6,7]cyclohepta[1,2-f]indole-3-carboxylic acid hydrochloride]	< 1	< 1	3.5 to 12.5
CCNCc1cc2cc3c(cc2n1C)C(C)CCc1c-3[nH]c(=O)c(C(=O)O)c1O.Cl (stereo not drawn) [Cpd 63, 10-((ethylamino)methyl)-4-hydroxy-7,9-dimethyl-2-oxo-1,2,5,6,7,9-hexahydropyrido[3′,2′:6,7]cyclohepta[1,2-f]indole-3-carboxylic acid hydrochloride]	3.5 to 12.5	1 to 3.5	12.5 to 150
CC1CCc2c([nH]c(=O)c(C(=O)O)c2O)-c2cc3cc(CNC4(C)CC4)n(C)c3cc21.Cl (stereo not drawn) [Cpd 66, 4-hydroxy-7,9-dimethyl-10-(((1-methylcyclopropyl)amino)methyl)-2-oxo-1,2,5,6,7,9-hexahydropyrido[3′,2′:6,7]cyclohepta[1,2-f]indole-3-carboxylic acid hydrochloride]	12.5 to 150	1 to 3.5	3.5 to 12.5
CNCc1cc2cc3c(cc2n1C)CCCc1c-3[nH]c(=O)c(C(=O)O)c1O.Cl [Cpd 22, 4-hydroxy-9-methyl-10-((methylamino)methyl)-2-oxo-1,2,5,6,7,9-hexahydropyrido[3′,2′:6,7]cyclohepta[1,2-f]indole-3-carboxylic acid hydrochloride]	< 1	< 1	3.5 to 12.5
CNCc1cc2c3c(ccc2n1C)-c1[nH]c(=O)c(C(=O)O)c(O)c1CCC3.Cl [Cpd 60, 7-hydroxy-1-methyl-2-((methylamino)methyl)-9-oxo-1,4,5,6,9,10-hexahydropyrido[2′,3′:3,4]cyclohepta[1,2-e]indole-8-carboxylic acid hydrochloride]	12.5 to 150	3.5 to 12.5	12.5 to 150
Cl.Cn1c(CNCc2ccccc2)cc2cc3c(cc21)CCCc1c-3[nH]c(=O)c(C(=O)O)c1O [Cpd 34, 10-((benzylamino)methyl)-4-hydroxy-9-methyl-2-oxo-1,2,5,6,7,9-hexahydropyrido[3′,2′:6,7]cyclohepta[1,2-f]indole-3-carboxylic acid hydrochloride]	1 to 3.5	< 1	1 to 3.5
Cl.Cn1c(CNC(C)(C)C)cc2cc3c(cc21)OCCc1c-3[nH]c(=O)c(C(=O)O)c1O [Cpd 175, 10-((tert-butylamino)methyl)-4-hydroxy-9-methyl-2-oxo-2,5,6,9-tetrahydro-1H-pyrido[2′,3′:4,5]oxepino[3,2-f]indole-3-carboxylic acid hydrochloride]	< 1	< 1	3.5 to 12.5
CC(CO)NCc1cc2cc3c(cc2n1C)CCCc1c-3[nH]c(=O)c(C(=O)O)c1O.Cl (stereo not drawn) [Cpd 151, 4-hydroxy-10-(((1-hydroxypropan-2-yl)amino)methyl)-9-methyl-2-oxo-1,2,5,6,7,9-hexahydropyrido[3′,2′:6,7]cyclohepta[1,2-f]indole-3-carboxylic acid hydrochloride]	1 to 3.5	3.5 to 12.5	12.5 to 150
CN1CCN(c2ccc3c(c2)NCCc2c-3[nH]c(=O)c(C(=O)O)c2O)CC1.Cl [Cpd 96, 4-hydroxy-9-(4-methylpiperazin-1-yl)-2-oxo-2,5,6,7-tetrahydro-1H-benzo[b]pyrido[2,3-d]azepine-3-carboxylic acid hydrochloride]	12.5 to 150	3.5 to 12.5	12.5 to 150
CN(CCO)Cc1cc2cc3c(cc2n1C)CCCc1c-3[nH]c(=O)c(C(=O)O)c1O.Cl [Cpd 149, 4-hydroxy-10-(((2-hydroxyethyl)(methyl)amino)methyl)-9-methyl-2-oxo-1,2,5,6,7,9-hexahydropyrido[3′,2′:6,7]cyclohepta[1,2-f]indole-3-carboxylic acid hydrochloride]	3.5 to 12.5	< 1	3.5 to 12.5
Cl.Cn1c(CNCC2CC2)cc2cc3c(cc21)CCCc1c-3[nH]c(=O)c(C(=O)O)c1O [Cpd 32, 10-(((cyclopropylmethyl)amino)methyl)-4-hydroxy-9-methyl-2-oxo-1,2,5,6,7,9-hexahydropyrido[3′,2′:6,7]cyclohepta[1,2-f]indole-3-carboxylic acid hydrochloride]	1 to 3.5	< 1	1 to 3.5
CNCc1cc2cc3c(cc2n1C)CCCc1cc(C(=O)O)c(=O)[nH]c1-3.Cl [Cpd 53, 9-methyl-10-((methylamino)methyl)-2-oxo-1,2,5,6,7,9-hexahydropyrido[3′,2′:6,7]cyclohepta[1,2-f]indole-3-carboxylic acid hydrochloride]	1 to 3.5	< 1	12.5 to 150
O=C(O)c1c(O)c2c([nH]c1=O)-c1ccc(N3CCCC3)cc1SCC2 [Cpd 186, 4-hydroxy-2-oxo-9-(pyrrolidin-1-yl)-1,2,5,6-tetrahydrobenzo[2,3]thiepino[4,5-b]pyridine-3-carboxylic acid]	12.5 to 150 (≈ 34.9 to 419 µM)	< 1	3.5 to 12.5 (≈ 9.77 to 34.9 µM)
CC(C)NCc1cc2cc3c(cc2n1C)OCCc1c-3[nH]c(=O)c(C(=O)O)c1O.Cl [Cpd 90, 4-hydroxy-10-((isopropylamino)methyl)-9-methyl-2-oxo-2,5,6,9-tetrahydro-1H-pyrido[2′,3′:4,5]oxepino[3,2-f]indole-3-carboxylic acid hydrochloride]	< 1	< 1	12.5 to 150
CC1Cc2cc(N(C)C)ccc2-c2[nH]c(=O)c(C(=O)O)c(O)c21 (stereo not drawn) [Cpd 108, 8-(dimethylamino)-4-hydroxy-5-methyl-2-oxo-1,2,5,6-tetrahydrobenzo[h]quinoline-3-carboxylic acid]	12.5 to 150 (≈ 39.8 to 477 µM)	< 1	3.5 to 12.5 (≈ 11.1 to 39.8 µM)
CCC(C)NCc1cc2cc3c(cc2n1C)CCCc1c-3[nH]c(=O)c(C(=O)O)c1O.Cl (stereo not drawn) [Cpd 146, 10-((sec-butylamino)methyl)-4-hydroxy-9-methyl-2-oxo-1,2,5,6,7,9-hexahydropyrido[3′,2′:6,7]cyclohepta[1,2-f]indole-3-carboxylic acid hydrochloride]	< 1	< 1	3.5 to 12.5
CN(C)C1CCN(c2ccc3c(c2)CCCc2c-3[nH]c(=O)c(C(=O)O)c2O)C1.Cl (stereo not drawn) [Cpd 6, 9-(3-(dimethylamino)pyrrolidin-1-yl)-4-hydroxy-2-oxo-2,5,6,7-tetrahydro-1H-benzo[6,7]cyclohepta[1,2-b]pyridine-3-carboxylic acid hydrochloride]	3.5 to 12.5	< 1	12.5 to 150
CN1CCC2(CCN(c3ccc4c(c3)CCCc3c-4[nH]c(=O)c(C(=O)O)c3O)C2)C1.Cl (stereo not drawn) [Cpd 123, 4-hydroxy-9-(7-methyl-2,7-diazaspiro[4.4]nonan-2-yl)-2-oxo-2,5,6,7-tetrahydro-1H-benzo[6,7]cyclohepta[1,2-b]pyridine-3-carboxylic acid hydrochloride]	3.5 to 12.5	< 1	12.5 to 150
Cl.Cn1c(CNC2CC2)cc2cc3c(cc21)CCCc1c-3[nH]c(=O)c(C(=O)O)c1O [Cpd 36, 10-((cyclopropylamino)methyl)-4-hydroxy-9-methyl-2-oxo-1,2,5,6,7,9-hexahydropyrido[3′,2′:6,7]cyclohepta[1,2-f]indole-3-carboxylic acid hydrochloride]	1 to 3.5	< 1	3.5 to 12.5
O=C(O)c1c(O)c2c([nH]c1=O)-c1ccc(N[C@@H]3CC[C@H]4CNC[C@H]43)cc1OCC2 [Cpd 166, 4-hydroxy-9-(((cis)-octahydrocyclopenta[c]pyrrol-4-yl)-(cis)-amino)-2-oxo-1,2,5,6-tetrahydrobenzo[2,3]oxepino[4,5-b]pyridine-3-carboxylic acid hydrochloride]	12.5 to 150	12.5 to 150	12.5 to 150
CN1CCCN(c2ccc3c(c2)CCCc2c-3[nH]c(=O)c(C(=O)O)c2O)CC1.Cl [Cpd 112, 4-hydroxy-9-(4-methyl-1,4-diazepan-1-yl)-2-oxo-2,5,6,7-tetrahydro-1H-benzo[6,7]cyclohepta[1,2-b]pyridine-3-carboxylic acid hydrochloride]	3.5 to 12.5	1 to 3.5	12.5 to 150
Cl.Cl.Cn1c(CN2CC[C@H](N)C2)cc2cc3c(cc21)CCCc1c-3[nH]c(=O)c(C(=O)O)c1O [Cpd 49, (S)-10-((3-aminopyrrolidin-1-yl)methyl)-4-hydroxy-9-methyl-2-oxo-1,2,5,6,7,9-hexahydropyrido[3′,2′:6,7]cyclohepta[1,2-f]indole-3-carboxylic acid dihydrochloride]	3.5 to 12.5	1 to 3.5	12.5 to 150
